Numbers after ± are expanded uncertainties.
Legend:
[1] = 101.33 kPa, Liquid, Pycnometric method
[2] = xn = mol fraction of the nth substance listed; conditions: Pycnometric method

Fc1ccc(F)c(F)c1F [1,2,3,4-tetrafluorobenzene]
[1]
Conditions	mass density [kg/m3]
296.4 K	1408 ± 40
327.4 K	1360 ± 40

Fc1cc(F)c(F)c(F)c1 [1,2,3,5-tetrafluorobenzene]
[1]
Conditions	mass density [kg/m3]
296.3 K	1403 ± 37
325.9 K	1352 ± 37

Fc1cc(F)c(F)c(F)c1 [1,2,3,5-tetrafluorobenzene] + CCn1cc[n+](C)c1.O=S(=O)([N-]S(=O)(=O)C(F)(F)F)C(F)(F)F
[2]
Conditions	molar volume [m3/mol]
283.5 K, Liquid mixture 1, x1 = 0.659	0.0001523 ± 1.1e-05
283.5 K, Liquid mixture 2, x1 = 1	0.0001053 ± 5.1e-06
298.3 K, Liquid mixture 1, x1 = 0.652	0.0001562 ± 1.1e-05
298.3 K, Liquid mixture 2, x1 = 1	0.0001069 ± 5.1e-06
316.7 K, Liquid mixture 1, x1 = 0.647	0.0001579 ± 1.1e-05
316.7 K, Liquid mixture 2, x1 = 1	0.0001096 ± 5.1e-06
333.2 K, Liquid mixture 1, x1 = 0.638	0.0001605 ± 1.1e-05
333.2 K, Liquid mixture 2, x1 = 1	0.0001119 ± 5.1e-06
353.1 K, Liquid mixture 1, x1 = 0.631	0.000164 ± 1.1e-05
353.1 K, Liquid mixture 2, x1 = 1	0.0001149 ± 5.1e-06
373 K, Liquid mixture 1, x1 = 0.623	0.0001688 ± 1.1e-05
373 K, Liquid mixture 2, x1 = 1	0.000118 ± 5.1e-06

Fc1cccc(F)c1F [1,2,3-trifluorobenzene]
[1]
Conditions	mass density [kg/m3]
296 K	1292 ± 36
331.6 K	1240 ± 36

Fc1cc(F)c(F)cc1F [1,2,4,5-tetrafluorobenzene]
[1]
Conditions	mass density [kg/m3]
296.7 K	1421 ± 36
327.4 K	1370 ± 36

Fc1cc(F)c(F)cc1F [1,2,4,5-tetrafluorobenzene] + CCn1cc[n+](C)c1.O=S(=O)([N-]S(=O)(=O)C(F)(F)F)C(F)(F)F
[2]
Conditions	molar volume [m3/mol]
283.3 K, Liquid mixture 1, x1 = 0.736	0.0001422 ± 5.2e-06
283.3 K, Liquid mixture 2, x1 = 0.999	0.000103 ± 3e-06
298.2 K, Liquid mixture 1, x1 = 0.731	0.0001449 ± 5.2e-06
298.2 K, Liquid mixture 2, x1 = 0.999	0.0001047 ± 3e-06
315.5 K, Liquid mixture 1, x1 = 0.725	0.0001473 ± 5.2e-06
315.5 K, Liquid mixture 2, x1 = 1	0.0001074 ± 3e-06
333.2 K, Liquid mixture 1, x1 = 0.718	0.0001508 ± 5.2e-06
333.2 K, Liquid mixture 2, x1 = 1	0.0001095 ± 3e-06
353.1 K, Liquid mixture 1, x1 = 0.71	0.0001551 ± 5.2e-06
353.1 K, Liquid mixture 2, x1 = 1	0.0001124 ± 3e-06
373 K, Liquid mixture 1, x1 = 0.702	0.0001595 ± 5.2e-06
373 K, Liquid mixture 2, x1 = 1	0.0001157 ± 3e-06

Fc1ccc(F)c(F)c1 [1,2,4-trifluorobenzene] + CCn1cc[n+](C)c1.O=S(=O)([N-]S(=O)(=O)C(F)(F)F)C(F)(F)F
molar volume [m3/mol], [2]
Conditions	Liquid mixture 1, x1 = 0.891	Liquid mixture 1, x1 = 0.892	Liquid mixture 1, x1 = 0.893	Liquid mixture 2, x1 = 0.977
362.4 K	–	–	0.0001242 ± 5.2e-06	0.0001135 ± 6.2e-06
367.4 K	–	0.0001247 ± 5.2e-06	–	0.000114 ± 6.2e-06
372.4 K	0.0001252 ± 5.2e-06	–	–	0.0001145 ± 6.2e-06

Fc1cc(F)cc(F)c1 [1,3,5-trifluorobenzene] + CCn1cc[n+](C)c1.O=S(=O)([N-]S(=O)(=O)C(F)(F)F)C(F)(F)F
[2]
Conditions	molar volume [m3/mol]
283.5 K, Liquid mixture 1, x1 = 0.497	0.0001754 ± 1.3e-05
283.5 K, Liquid mixture 2, x1 = 1	0.0001013 ± 3.6e-06
298.2 K, Liquid mixture 1, x1 = 0.498	0.0001762 ± 1.3e-05
298.2 K, Liquid mixture 2, x1 = 1	0.0001035 ± 3.6e-06
316.6 K, Liquid mixture 1, x1 = 0.487	0.000179 ± 1.3e-05
316.6 K, Liquid mixture 2, x1 = 1	0.0001057 ± 3.6e-06
333.2 K, Liquid mixture 1, x1 = 0.482	0.0001815 ± 1.3e-05
333.2 K, Liquid mixture 2, x1 = 1	0.000108 ± 3.6e-06
353.1 K, Liquid mixture 1, x1 = 0.478	0.000183 ± 1.3e-05
353.1 K, Liquid mixture 2, x1 = 1	0.0001108 ± 3.6e-06
373 K, Liquid mixture 1, x1 = 0.482	0.0001846 ± 1.3e-05
373 K, Liquid mixture 2, x1 = 1	0.0001144 ± 3.6e-06

Fc1cccc(F)c1 [1,3-difluorobenzene] + CCn1cc[n+](C)c1.O=S(=O)([N-]S(=O)(=O)C(F)(F)F)C(F)(F)F
[2]
Conditions	molar volume [m3/mol]
283.3 K, Liquid mixture 1, x1 = 0.757	0.000134 ± 7.2e-06
283.3 K, Liquid mixture 2, x1 = 1	9.82e-05 ± 7.6e-06
294.4 K, Liquid mixture 1, x1 = 0.755	0.0001363 ± 7.2e-06
294.4 K, Liquid mixture 2, x1 = 1	9.93e-05 ± 7.6e-06
316.1 K, Liquid mixture 1, x1 = 0.753	0.0001404 ± 7.2e-06
316.1 K, Liquid mixture 2, x1 = 1	0.000102 ± 7.6e-06
333.3 K, Liquid mixture 1, x1 = 0.748	0.0001429 ± 7.2e-06
333.3 K, Liquid mixture 2, x1 = 1	0.000104 ± 7.6e-06
353.1 K, Liquid mixture 1, x1 = 0.742	0.000146 ± 7.2e-06
353.1 K, Liquid mixture 2, x1 = 1	0.0001065 ± 7.6e-06
373 K, Liquid mixture 1, x1 = 0.736	0.0001492 ± 7.2e-06
373 K, Liquid mixture 2, x1 = 1	0.000109 ± 7.6e-06

Fc1ccc(F)cc1 [1,4-difluorobenzene] + CCn1cc[n+](C)c1.O=S(=O)([N-]S(=O)(=O)C(F)(F)F)C(F)(F)F
[2]
Conditions	molar volume [m3/mol]
283.4 K, Liquid mixture 1, x1 = 0.816	0.0001239 ± 7.2e-06
283.4 K, Liquid mixture 2, x1 = 1	9.76e-05 ± 6.4e-06
294.4 K, Liquid mixture 1, x1 = 0.814	0.0001255 ± 7.2e-06
294.4 K, Liquid mixture 2, x1 = 1	9.88e-05 ± 6.4e-06
316.2 K, Liquid mixture 1, x1 = 0.81	0.0001288 ± 7.2e-06
316.2 K, Liquid mixture 2, x1 = 1	0.000101 ± 6.4e-06
343.2 K, Liquid mixture 1, x1 = 0.807	0.0001337 ± 7.2e-06
343.2 K, Liquid mixture 2, x1 = 0.999	0.0001038 ± 6.4e-06
353.1 K, Liquid mixture 1, x1 = 0.804	0.0001354 ± 7.2e-06
353.1 K, Liquid mixture 2, x1 = 0.999	0.000105 ± 6.4e-06
373 K, Liquid mixture 1, x1 = 0.799	0.0001387 ± 7.2e-06
373 K, Liquid mixture 2, x1 = 0.999	0.0001069 ± 6.4e-06

Fc1ccccc1 [fluorobenzene] + CCn1cc[n+](C)c1.O=S(=O)([N-]S(=O)(=O)C(F)(F)F)C(F)(F)F
[2]
Conditions	molar volume [m3/mol]
282.5 K, Liquid mixture 1, x1 = 0.875	0.0001125 ± 5.6e-06
282.5 K, Liquid mixture 2, x1 = 0.992	9.31e-05 ± 2.4e-06
297.9 K, Liquid mixture 1, x1 = 0.875	0.0001137 ± 5.6e-06
297.9 K, Liquid mixture 2, x1 = 0.991	9.45e-05 ± 2.4e-06
315.5 K, Liquid mixture 1, x1 = 0.874	0.000115 ± 5.6e-06
315.5 K, Liquid mixture 2, x1 = 0.99	9.61e-05 ± 2.4e-06
333.2 K, Liquid mixture 1, x1 = 0.872	0.0001169 ± 5.6e-06
333.2 K, Liquid mixture 2, x1 = 0.989	9.84e-05 ± 2.4e-06
353.1 K, Liquid mixture 1, x1 = 0.869	0.0001197 ± 5.6e-06
353.1 K, Liquid mixture 2, x1 = 0.989	0.000101 ± 2.4e-06
373 K, Liquid mixture 1, x1 = 0.865	0.0001231 ± 5.6e-06
373 K, Liquid mixture 2, x1 = 0.989	0.0001035 ± 2.4e-06

Fc1cc(F)c(F)c(F)c1F [pentafluorobenzene] + CCn1cc[n+](C)c1.O=S(=O)([N-]S(=O)(=O)C(F)(F)F)C(F)(F)F
[2]
Conditions	molar volume [m3/mol]
283.4 K, Liquid mixture 1, x1 = 0.715	0.0001484 ± 6.2e-06
283.4 K, Liquid mixture 2, x1 = 0.997	0.0001093 ± 4.8e-06
298.2 K, Liquid mixture 1, x1 = 0.704	0.0001523 ± 6.2e-06
298.2 K, Liquid mixture 2, x1 = 0.998	0.0001109 ± 4.8e-06
316.6 K, Liquid mixture 1, x1 = 0.696	0.0001552 ± 6.2e-06
316.6 K, Liquid mixture 2, x1 = 0.997	0.0001139 ± 4.8e-06
333.2 K, Liquid mixture 1, x1 = 0.681	0.0001605 ± 6.2e-06
333.2 K, Liquid mixture 2, x1 = 1	0.0001155 ± 4.8e-06
353.1 K, Liquid mixture 1, x1 = 0.669	0.0001652 ± 6.2e-06
353.1 K, Liquid mixture 2, x1 = 1	0.0001187 ± 4.8e-06
373 K, Liquid mixture 1, x1 = 0.657	0.0001692 ± 6.2e-06
373 K, Liquid mixture 2, x1 = 1	0.0001228 ± 4.8e-06

From the NIST ThermoML archive (doi:10.1021/je8006474)
